According to patent US5086054A, “Novel arylcycloalkanepolyalkylamines” (SRI International, priority 1990, dated 1992):
Values joined by “and” are separate entries in the source; they are usually repeats but may differ in a detail not shown here. Equal values may be shown once. “Also recorded” adds a separate entry of the source. Where a name gives a salt, the structure may show the parent alone. Read-outs that look alike come from different tables or passages of the source.

Experiments:
[1] = molecular target: T1, SIGMA RECEPTOR (Cavia porcellus, UniProt Q60492); assay: Sigma receptor binding assay ([3H]-d-SKF-10,047 displacement, brain membranes); design: species or system guinea-pig (male Hartley); details: for SIGMA RECEPTOR SLOPE: slope of dose response curve; for potency at σ receptors (in words): hydrochloride
T1 construct: Two milliter aliquots of the brain membrane preparation, containing 1.7 mg of protein; tissue Pel-Freeze (Rogers, Arkansas); host or cells: guinea-pig brains plus cerebella, membranes
Method: (§1) This example illustrates testing of compounds in receptor binding assays.
(§2) Frozen brains from male Hartley guinea-pigs were obtained from Pel-Freeze (Rogers, Arkansas).
(§3) The brains plus cerebella were homogenized in 10 volumes (v/w) of 0.1M, pH 7.4, ice-cold Tris-HCl buffer with a Brinkmann polytron at setting 4 for 20 seconds. The homogenates were centrifuged at 20,000×g for 20 minutes at 4° C. The pellets were suspended in 10 volumes of ice-cold water and, after sitting on ice for 10 minutes, were centrifuged 30 minutes at 20,000×g at 4° C. The resulting pellets were resuspended in the above Tris buffer in ratio 1:100 (w/v) for σ receptor assays or in 5 mM Tris-HCl having pH 7.4, for PCP receptor assays. The final suspension was homogenized with a dounce glass-glass tissue grinder Wheaton "200", at small clearance (B), with three strokes before use. Two milliter aliquots of the brain membrane preparation, containing 1.7 mg of protein, were incubated in quadruplicate for one hour at 23° C. with competing mixture of ligand and radioligand. For σ receptors, [^3 H]-d-SKF-10,047, 2 nM was used. For PCP receptors, [^3 H] TCP [^3 H]-1-[1-(2-thienyl)cyclohexyl]piperidine), 1 nM was used. The nonspecific bindings were defined by 0.1 mM d-SKF-10,047 and 0.1 mM phencyclidine respectively for σ and PCP receptors. After incubation, free ligand was separated from bound ligand by rapid filtration through Whatman GF/C filters. The filters had been soaked before use in isoamyl alcohol-saturated water to prevent nonspecific [^3 H]-d-SKF-10,047 binding to the filter. In the PCP receptor assay, the filter was soaked in 0.5% polyethylenimine to reduce the filter binding of [^3 H]-TCP. After filtration, the trapped tissue was washed three times with 4 ml aliquots of 0.1 M ice-cold Tris buffer at pH 7.4 for σ receptors and 5 mM, ice-cold Tris buffer pH 7.4 for PCP receptors. The filters were transferred to 5 ml of liquid scintillation fluid and the retained radioactivity was measured by liquid scintillation spectrometry.

[2] = molecular target: PCP RECEPTOR; assay: PCP receptor binding assay ([3H]-TCP displacement, brain membranes); design: species or system guinea-pig (male Hartley); details: for potency at PCP receptors (in words): hydrochloride
Method: as §1, §2, §3
(§4) Programs in Biomed. 17:107 (1983)].

[3] = humans; cited from earlier work
[4] = literature; cited from earlier work
[5] = molecular target: T2, DOPAMINE D2 (Cavia porcellus, UniProt H0VE83); assay: Dopamine D2 receptor binding ([3H]-spiroperidol); design: species or system guinea-pig
T2 construct: printed as cerebral cortical tissue, [3H]spiroperidol, haloperidol blank
Text: (§5) This example illustrates the testing of compounds of this invention in dopamine D2, 5-HT2, muscarinic acetylcholine, α1 -adrenoceptor and β-adrenoceptor receptor assays. The receptor assay methods are described in Eur. J. Pharmacol., 155:345 (1988) except that in the β-adrenoceptor assay, [^125 I]-pindolol was used instead of [^3 H] dihydroalprenolol.
(§6) In this study, guinea-pig brains were used for binding studies. Homogenization and centrifugation procedures for preparation of brain membranes for each receptor assay were the same as described in Example 4 for the σ and PCP receptors. However, brain regions, tissue contents, and buffers may differ depending on the assay. Conditions of binding assays for various receptors were as follows:
For dopamine D2 assay, 3 H-spiroperidol (0.15 nM) was incubated in a 2 ml assay (50 mM Tris-HCl, pH 7.4) for 2 hours at 23° C. with membranes from 12 mg of cerebral cortical tissue.
(§7) Filtration and washing conditions were the same as described above for the σ receptor assay. Nonspecific binding for each receptor was defined by the inclusion of 1 μM haloperidol for dopamine D2, 1 μM haloperidol for 5-HT2, 10 μM scopolamine for muscarinic acetylcholine, 10 μM prazosin for α1 -adrenoceptor, and 0.2 μM 1-propranolol for β-adrenoceptor. Retained radioactivity was measured by liquid scintillation spectrometry except for ^125 I-pindolol which was measured by the LKB gamma counter.
as §4

[6] = tested on: MUSCARINIC ACETYLCHOLINE; format: binding, guinea-pig
Text: as §5, §6
For muscarinic acetylcholine assay, […]) [^3 H]-quinuclidinyl benzylate ([^3 H]-QNB) was incubated in a 2 ml assay (50 mM Tris-HCl, pH 7.4) for 2 hours at 23° C. with membranes from 2 mg of whole brain minus cerebellum.
as §7, §4

[7] = molecular target: 5-HT2 (Cavia porcellus, UniProt A0A286Y537); assay: 5-HT2 receptor binding; design: species or system guinea-pig; details: for IC50: Table 4, IC50 and nM only stated in text, read-out: 5-HT2
Text: as §5, §6, §7, §4

[8] = molecular target: α1 -ADRENOCEPTOR; assay: α1-adrenoceptor binding ([3H]-prazosin); design: species or system guinea-pig; details: Table 4; IC50 and nM only stated in text; read-out: α1 -ADRENOCEPTOR
Text: as §5, §6
For α1 -adrenoceptor assay, [^3 H]-prazosin (0.4 nM) was incubated in a 1 ml assay (50 mM Tris-HCl, pH 7.4) for 1 hour at 23° C. with membranes from 1 mg of whole brain minus cerebellum.
as §7, §4

[9] = molecular target: β-ADRENOCEPTOR; assay: β-adrenoceptor binding ([125I]-pindolol); design: species or system guinea-pig; details: Table 4; IC50 and nM only stated in text; read-out: β-ADRENOCEPTOR
Text: as §5, §6
For β-adrenoceptor, [^125 I]-pindolol (0.05 nM) was incubated in a 1 ml assay (50 mM Tris-HCl, pH 7.4) for 1 hr at 23° C. with membranes from 1 mg of whole brain minus cerebellum.
as §7, §4

[10] = tested on: σ receptors; details: literature; cited from earlier work
[11] = tested on: σ binding sites; details: microinjections into red nucleus and substantia nigra; cited from earlier work
[12] = tested on: dopamine D-2 receptor; details: literature; cited from earlier work
[13] = clinical trials; cited from earlier work
[14] = Table 1, mean ± error (n), read-out: PCP RECEPTOR IC50
[15] = Table 4, IC50 and nM only stated in text, read-out: SIGMA
[16] = Table 4, IC50 and nM only stated in text, read-out: PCP
[17] = Table 4, IC50 and nM only stated in text, read-out: MUSCARINIC ACETYLCHOLINE
[18] = read-out: potency (IC50) at muscarinic acetylcholine receptor

T2 sequence (H0VE83 entry or part of it): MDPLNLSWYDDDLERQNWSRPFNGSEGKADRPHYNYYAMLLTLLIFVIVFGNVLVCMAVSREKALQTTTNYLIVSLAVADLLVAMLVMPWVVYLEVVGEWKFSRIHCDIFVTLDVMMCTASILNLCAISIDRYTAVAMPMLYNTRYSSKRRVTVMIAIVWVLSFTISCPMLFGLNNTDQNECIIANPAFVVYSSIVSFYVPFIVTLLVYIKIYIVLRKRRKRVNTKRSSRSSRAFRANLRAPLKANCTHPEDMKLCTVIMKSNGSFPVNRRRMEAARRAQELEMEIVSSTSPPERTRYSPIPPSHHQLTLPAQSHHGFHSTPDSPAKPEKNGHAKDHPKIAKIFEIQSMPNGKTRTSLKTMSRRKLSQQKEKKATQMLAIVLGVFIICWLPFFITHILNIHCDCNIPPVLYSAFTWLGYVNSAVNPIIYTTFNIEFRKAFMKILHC
T1 sequence (Q60492 whole entry): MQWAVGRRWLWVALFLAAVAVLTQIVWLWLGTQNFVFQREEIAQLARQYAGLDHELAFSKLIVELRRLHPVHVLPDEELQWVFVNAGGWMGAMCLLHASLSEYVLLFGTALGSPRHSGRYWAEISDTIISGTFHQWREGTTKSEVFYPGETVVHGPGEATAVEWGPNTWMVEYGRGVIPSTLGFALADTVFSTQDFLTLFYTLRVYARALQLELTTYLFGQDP
Chain of 5-HT2 (A0A286Y537 1-470): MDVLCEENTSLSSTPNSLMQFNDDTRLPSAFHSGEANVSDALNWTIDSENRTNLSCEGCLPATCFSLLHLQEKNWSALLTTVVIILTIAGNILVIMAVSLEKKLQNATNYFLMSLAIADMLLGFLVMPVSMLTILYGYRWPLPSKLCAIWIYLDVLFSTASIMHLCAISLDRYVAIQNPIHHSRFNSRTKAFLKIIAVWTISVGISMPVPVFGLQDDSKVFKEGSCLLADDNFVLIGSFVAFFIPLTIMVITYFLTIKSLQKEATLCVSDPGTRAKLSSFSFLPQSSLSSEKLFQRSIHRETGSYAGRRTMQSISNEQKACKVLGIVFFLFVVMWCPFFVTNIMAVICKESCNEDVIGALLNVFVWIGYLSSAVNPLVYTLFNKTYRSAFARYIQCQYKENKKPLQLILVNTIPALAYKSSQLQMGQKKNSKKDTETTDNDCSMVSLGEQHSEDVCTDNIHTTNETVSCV

| SMILES | SIGMA RECEPTOR SLOPE ([1]; Table 1) | IC50 [2, 14] [nM] | IC50 [1, 15] [nM] | potency at σ receptors (in words) [1] | IC50 ([1]; read-out: IC50 at σ receptors) | IC50 [2, 16] [nM] | potency at PCP receptors (in words) [2] | potency at dopamine D-2 receptors (in words) [5] | potency at muscarinic acetylcholine receptors (in words) [6] | IC50 [6, 17] [nM] | IC50 [6, 18] [nM] | potency at 5-HT2 receptors (in words) [7] | IC50 [7] [nM] | IC50 [8] [nM] | IC50 [9] [nM] | affinity / binding at σ receptors (in words) [10] | other results |
| --- | --- | --- | --- | --- | --- | --- | --- | --- | --- | --- | --- | --- | --- | --- | --- | --- | --- |
| c1ccc(C2(N3CCCCC3)CCCCC2)cc1 [Compound 1, 1-(1-phenylcylohexyl)piperidine, reference compound] | 0.95 ± 0.12 | 45 ± 5 | – | – | – | – | – | – | – | – | – | – | – | – | – | – | psychotic reactions [3]: causes psychotic reactions such as hallucinations, thought disorders and paranoid delusions similar to an acute schizophrenic episode; motor and behavioral effects [4]: alter gross motor activity and spatial alternation performance and to induce stereotypic movements |
| O=C(OCCN1CCCCC1)C1(c2ccccc2)CCCCC1 [Compound 3, 2-(1-Piperidino)ethyl 1-phenylcyclohexane-1-carboxylate hydrochloride] | 0.45 ± 0.04 | 34900 | 26 ± 7 | increased the potency of the compound in the σ receptor assay; also recorded: very potent in the σ assay; also recorded: very high | < 100 nM | 34900 | reduced the potency in the PCP receptor assay; also recorded: inactive in the PCP assay; also recorded: very weak or inactive in the PCP assay; also recorded: negligible; also recorded: low potency at PCP receptors | moderate potencies at dopamine D-2 and 5-HT2 receptors | quite potent at muscarinic acetylcholine receptors | 46 ± 7 | 46 | moderate potencies at dopamine D-2 and 5-HT2 receptors | 3660 | 24100 | 80400 | – | IC50 ([1]; Table 1, mean ± error (n), read-out: SIGMA RECEPTOR IC50): 24 nM; increased potency for σ receptors ([1]; relative to PCP (1)): more than 300 times; decreased potency for PCP receptors ([2]; relative to PCP (1)): about 700 times |
| O=C(OCCN1CCCC1)C1(c2ccccc2)CCCCC1 [Compound 8, 2-(1-Pyrrolidino)ethyl 1-phenylcyclohexane-1-carboxylate hydrochloride] | 0.50 ± 0.02 | 64700 | 5.1 ± 1.7 | σ receptor potency increased; also recorded: very high | 5 nM and < 100 nM | 64700 | inactive in the PCP assay; also recorded: negligible; also recorded: low potency at PCP receptors | moderate potencies at dopamine D-2 and 5-HT2 receptors | quite potent at muscarinic acetylcholine receptors | 123 ± 16 | 23 | moderate potencies at dopamine D-2 and 5-HT2 receptors | 2930 | 23200 | 85000 | – | IC50 ([2]; read-out: IC50 / potency for PCP receptors): ~64000 nM |
| CCN(CC)CCOC(=O)C1(c2ccccc2)CCCCC1.Cl [Compound 15, 2-(Diethylamino)ethyl 1-phenylcyclohexane-1-carboxylate hydrochloride] | 0.66 ± 0.16 | 40900 | 30 ± 5 | σ receptor potency increased; also recorded: very potent in the σ assay; also recorded: very high | < 100 nM | 40900 | inactive in the PCP assay; also recorded: very weak or inactive in the PCP assay; also recorded: negligible; also recorded: low potency at PCP receptors | moderate potencies at dopamine D-2 and 5-HT2 receptors | quite potent at muscarinic acetylcholine receptors | 189 ± 35 | 189 | moderate potencies at dopamine D-2 and 5-HT2 receptors | 2180 | 30100 | 81900 | – | – |
| CN(C)CCOC(=O)C1(c2ccccc2)CCCCC1.Cl [Compound 19, 2-(Dimethylamino)ethyl 1-phenylcyclohexane-1-carboxylate hydrochloride] | 0.54 ± 0.02 | 21700 | 9.2 ± 0.8 | σ receptor potency increased; also recorded: very potent in the σ assay; also recorded: very high | < 100 nM | 21700 | inactive in the PCP assay; also recorded: very weak or inactive in the PCP assay; also recorded: negligible; also recorded: low potency at PCP receptors | moderate potencies at dopamine D-2 and 5-HT2 receptors | quite potent at muscarinic acetylcholine receptors | 750 ± 36 | 750 | moderate potencies at dopamine D-2 and 5-HT2 receptors | 1410 | 29000 | 85700 | – | – |
| Cc1ccccc1NC(=N)Nc1ccccc1C [DTG, 1,3-di-o-tolylguanidine] | – | – | – | – | – | – | – | – | – | – | – | – | – | – | – | bind to σ receptors | contralateral circling behavior [11]: produce vigorous contralateral circling behavior |
| O=C(CCCN1CCC(O)(c2ccc(Cl)cc2)CC1)c1ccc(F)cc1 [haloperidol, 4-[4-(p-chlorophenyl)-4-hydroxypiperidino]-4'-fluorobutyrophenone] | – | – | – | – | – | – | – | – | – | – | – | – | – | – | – | high affinity for the σ site; also recorded: bind to σ receptors | dopamine D-2 receptor antagonism (in words) [12]: potent dopamine D-2 receptor antagonist |
| CCN1CCC[C@H]1CNC(=O)c1c(OC)ccc(Br)c1OC [remoxipride] | – | – | – | – | – | – | – | – | – | – | – | – | – | – | – | potent and selective σ receptor ligands | clinical antipsychotic effects [13]: display clinical antipsychotic effects |
